Assay results from paper PMC9704608, “Anti-leishmanial physalins—Phytochemical investigation, in vitro evaluation against clinical and MIL-resistant L. tropica strains and in silico studies” (PLOS ONE, 2022).
Where two headings read alike, the source gives them in different places.

Columns and labels:
L. major promastigotes = test: Promastigote growth inhibition assay (MTT), L. major; format: cell-based, Leishmania major; conditions: for IC50: Leishmania major; for IC50 / L. major IC50 (μM± SD): 72 h; for anti-leishmanial activity against promastigotes of L. major (in words): in vitro
Procedure: (§1) L. major and L. tropica (Clinical isolates) promastigotes were grown at […] in RPMI-1640 (Sigma) medium containing 10% of heat-inactivated (56°C for 30 min) fetal bovine serum. Cell viability was initially evaluated by wet mount method by observing the live cells under compound microscope. Parasite growth was assessed by counting live / motile promastigotes in a Neubauer chamber. Viable cell count was used for the further experimentations (treatments).
(§2) The promastigotes in their log phase were used in 96-well plates. 1 × 10^6 wild-type and resistant promastigotes were dispensed in 96 96-well plates, and incubated with tested compounds at a range concentration of 200–10 μM at 27°C for 72 h. After incubation of 72 h, MTT dye (3-(4,5-dimethylthiazol-2-yl)-2,5-diphenyl-2H-tetrazolium bromide) was added and further incubate it for 3–4 h. Amphotericin B, pantamidine and miltefosine were used as the positive control, untreated promastigotes were used as negative control moreover DMSO control was also added in the study as a stock solution of the compounds that were prepared in DMSO. All the experiments were performed in triplicates. After completion of the experiment the absorbance by Multiskan ascent plate reader at 452 nm and percent inhibition was calculated by the following formula.
(§3) Cytotoxic concentration (%) = [100- (Absorbance of test)/ (Absorbance of solvent control) ×100] %.

L. tropica promastigotes = test: Promastigote growth inhibition assay (MTT), L. tropica clinical isolates; format: cell-based, Leishmania tropica; conditions: for IC50: Leishmania tropica; for IC50 / L. tropica IC50 (μM± SD): 72 h
Procedure: as §1, §2, §3

[1] = Cytotoxicity (MTT) against BJ cell line; format: cell-based, human; conditions: pure compounds, human fibroblast, 48 h, read-out: BJ cell line CC50 (μM± SD)
Procedure: (§4) The cytotoxicity of the test compounds against normal cell lines was evaluated through MTT (3-[4, 5-dimethylthiazole-2-yl]-2, 5-diphenyl-tetrazolium bromide] colorimetric assay in 96-well flat-bottomed microplates. The 3T3 (mouse fibroblast) and BJ (human fibroblast) were cultured Dulbecco’s Modified Eagle Medium, supplemented with 5% of fetal bovine serum (FBS), 100 IU/mL of penicillin and 100 μg/mL of streptomycin in 75 cm2 flasks, and then incubated in 5% CO2 incubator at 37°C. The growing cells were counted by using a haemocytometer, and diluted with the particular medium. The 5x10^4 cells/mL of the cell culture was prepared, and a sample […] was introduced into each well. […] After 48 hours, 200 μL MTT (0.5 mg/mL) was added, and the incubation was further continued for 4 hrs. After that time, 100 μL of DMSO was added to each well. The absorbance was measured using a micro plate reader (Spectra Max Plus, Molecular Devices, CA, USA) at 570 nm for the extent of MTT reduction to formazan within the cells. The cytotoxicity was recorded as CC50 against cells by using Soft- Max Pro software. Doxorubicin and cycloheximide were used as positive control. The experiments were run in triplicate.

[2] = tested on: BJ (human fibroblast) cells; test: Cytotoxicity (MTT) against BJ cell line; format: cell-based; conditions: for L. tropica SI (CC50/ IC50): CC50 BJ cell line / IC50 L. tropica; for IC50: Homo sapiens, Fibroblast, read-out: BJ (human fibroblast) IC50 (μM± SD)
Procedure: as §4

[3] = tested on: 3T3 (mouse fibroblast) cells; test: Cytotoxicity (MTT) against 3T3 cell line; format: cell-based; conditions: for IC50: Mus musculus, Fibroblast, read-out: 3T3 (mouse fibroblast) IC50 (μM ± SD)
Procedure: (§5) The cytotoxicity of the test compounds against normal cell lines was evaluated through MTT (3-[4, 5-dimethylthiazole-2-yl]-2, 5-diphenyl-tetrazolium bromide] colorimetric assay in 96-well flat-bottomed microplates. The 3T3 (mouse fibroblast) and BJ (human fibroblast) were cultured Dulbecco’s Modified Eagle Medium, supplemented with 5% of fetal bovine serum (FBS), 100 IU/mL of penicillin and 100 μg/mL of streptomycin in 75 cm2 flasks, and then incubated in 5% CO2 incubator at 37°C. The growing cells were counted by using a haemocytometer, and diluted with the particular medium. The 5x10^4 cells/mL of the cell culture was prepared, and a sample […] was introduced into each well. The medium was removed after overnight incubation, and 200 μL of fresh medium was added with different concentrations of compounds (1–30 μM). After 48 hours, 200 μL MTT (0.5 mg/mL) was added, and the incubation was further continued for 4 hrs. After that time, 100 μL of DMSO was added to each well. The absorbance was measured using a micro plate reader (Spectra Max Plus, Molecular Devices, CA, USA) at 570 nm for the extent of MTT reduction to formazan within the cells. The cytotoxicity was recorded as CC50 against cells by using Soft- Max Pro software. Doxorubicin and cycloheximide were used as positive control. The experiments were run in triplicate.

[4] = Cytotoxicity (MTT) against 3T3 cell line; format: cell-based, mouse; conditions: pure compounds; mouse fibroblast, 48 h; read-out: 3T3 Cell line CC50 (μM± SD)
Procedure: as §5

[5] = tested on: MIL-resistant L. tropica promastigotes; test: Growth inhibition assay (MTT) against MIL-resistant line; format: cell-based, Leishmania tropica; conditions: 72 h; for MIL Resistant L. tropica IC50 (μM± SD): miltefosine-unresponsive strain, promastigotes
Procedure: as §2, §3
Promastigote cultures tL. tropica (Clinical isolates) were maintained at 26°C in RPMI-1640 medium containing 15% FBS and 1% penicillin–streptomycin mixture.
Generation of miltefosine-unresponsive strain was carried under high MIL pressure by in vitro passage with a stepwise increase in the MIL concentration. At each step, parasites were cultured and passaged every 3–4 days at an initial concentration of 5x10^5 promastigotes/mL in order to achieve -stable growth as compared to the wildtype isolate. Growth rates were measured for resistant populations and compared with the WT strain. Parasites were counted at an initial concentration of 5x10^5 parasites/mL and growth was measured daily using a Neubauer chamber until the population reached the stationary phase. Furthermore, the fluorescence microscopic investigations via DAPI stain were also carried out to supplement the study.

[6] = CC50 BJ fibroblast cell line / IC50 L. major
[7] = CC50 BJ fibroblast cell line / IC50 L. tropica
[8] = pure compounds, standard drugs, promastigotes
[9] = pure compounds, standard drugs, promastigotes, clinical isolate
[10] = CC50 3T3 mouse fibroblast cell line / IC50 L. major
[11] = read-out: L. major IC50 (μM± SD)
[12] = read-out: L. tropica IC50 (μM± SD)

Row | SMILES | L. major SI (CC50/ IC50) (L. major promastigotes; [6]) | L. tropica SI (CC50/ IC50) (L. tropica promastigotes; [7]) | L. tropica SI (CC50/ IC50) [2] | anti-leishmanial activity against promastigotes of L. major (in words) (L. major promastigotes) | L. major IC50 (μM± SD) (L. major promastigotes; [8]) | L. tropica IC50 (μM± SD) (L. tropica promastigotes; [9]) | L. major SI (CC50/ IC50) (L. major promastigotes; [10]) | IC50 (L. major promastigotes; [11]) [µM] | IC50 [3] [µM] | CC50 at 48 h [4] [µM] | IC50 (L. tropica promastigotes; [12]) [µM] | CC50 at 48 h [1] [µM] | IC50 [2] [µM] | MIL Resistant L. tropica IC50 (μM± SD) [5] | other results
1 | C[C@@H]1[C@H](O)[C@@H](C)/C=C/C=C/C=C/C=C/C=C/C=C/C=C/[C@H](O[C@@H]2O[C@H](C)[C@@H](O)[C@H](N)[C@@H]2O)C[C@@H]2O[C@](O)(C[C@@H](O)C[C@@H](O)[C@H](O)CC[C@@H](O)C[C@@H](O)CC(=O)O[C@H]1C)C[C@H](O)[C@H]2C(=O)O [Amphotericin B, reference compound] | 4.37 | 4.69 | 4.69 | – | – | – | – | – | – | – | – | – | – | – | IC50 (L. major promastigotes; extracts, fractions, standard drugs, promastigotes, read-out: L. major IC50 (μg/ml ± SD)): 3.14 ± 0.04 µg/mL; IC50 (L. major promastigotes; pure compounds, standard drugs, promastigotes, read-out: L. major IC50 (μM± SD)): 3.39 ± 0.043 µM; IC50 (L. tropica promastigotes; extracts, fractions, standard drugs, promastigotes, read-out: L. tropica IC50 (μg/ml ± SD)): 3.16 ± 0.04 µg/mL; IC50 (L. tropica promastigotes; pure compounds, standard drugs, promastigotes, clinical isolate, read-out: L. tropica IC50 (μM± SD)): 3.42 ± 0.04 µM; CC50 at 48 h ([1]; BJ fibroblast cells): 16.1 µM
2 | CC12C(=O)C=CC=C1C(O)CC1C(=O)C3=NCC4C(=O)OC5CC4(C)C3C3(O)C(O)(CCC12)C(=O)OC53C (centres unmarked) [Compound 1, Aminophysalin B] | – | – | – | no significant activity | Inactive | Inactive | – | – | – | – | – | – | – | – | 3T3 (mouse fibroblast) IC50 (μM ± SD) ([3]; cytotoxicity of compounds 1-9): Non cytotoxic; BJ (human fibroblast) IC50 (μM± SD) ([2]; cytotoxicity of compounds 1-9): Non cytotoxic; BJ cell line CC50 (μM± SD) ([2]; pure compounds, human fibroblast, 48 h): Non cytotoxic
3 | C[C@]12C(=O)C=CCC1=CC[C@@H]1[C@@H]2CC[C@]2(O)C(=O)O[C@@]3(C)[C@H]4C[C@]5(C)[C@@H](CO[C@@]16O[C@@]32[C@H]5C6=O)C(=O)O4 [Compound 2, Physalin B] | 3.5 | 0.8 | 0.8 | – | – | – | 3.28 | 3.04 ± 1.12 | 10 ± 0.4 | 10 ± 0.4 | 13.33 ± 0.098 | 10.8 ± 1.5 | 27.6 ± 0.9 | inactive | L. major SI (CC50/ IC50) ([2]; CC50 BJ cell line / IC50 L. major): 3.5
4 | CC12CC3OC(=O)C1COC14OC5(C2C1=O)C(O)(CCC1C4CC2OC24CC=CC(=O)C14C)C(=O)OC35C (stereo not drawn) [Compound 3, 5β, 6β-epoxyphysalin B] | 7.34 | 1.48 | 1.48 | – | – | – | 0.19 | 3.76 ± 0.85 | 0.72 ± 0.5 | 0.72 ± 0.5 | 18.5 ± 0.28 | 27.6 | 10.8 ± 1.5 | inactive | L. tropica SI (CC50/ IC50) ([3]; CC50 3T3 cell line / IC50 L. tropica): 0.038; L. tropica SI (CC50/ IC50) (L. tropica promastigotes; CC50 3T3 mouse fibroblast cell line / IC50 L. tropica): 0.038
5 | CCOC12CC=CC(=O)C1(C)C1CCC3(O)C(=O)OC4(C)C5CC6(C)C(COC7(OC34C6C7=O)C1CC2O)C(=O)O5 (stereo not drawn) [Compound 4, 5α-ethoxy-6ß-hydroxy-5,6-dihydrophysalin B] | – | – | – | no significant activity | Inactive | Inactive | – | – | – | – | – | – | – | – | IC50 ([3]; cytotoxicity of compounds 1-9): 19.6 ± 0.8 µM; CC50 [4]: 19.6 ± 0.8 µM; CC50 [1]: 14.2 ± 0.8 µM; IC50 ([2]; cytotoxicity of compounds 1-9): < 50 µM; IC50 ([5]; Leishmania tropica, read-out: MIL Resistant L. tropica IC50 (μM± SD)): 74.7 ± 0.81 µM
